Measured values taken from the supplement of paper PMC10627819.

How the values were obtained:
[1] = test system: S. aureus DSM 20231; assay: Bliss interaction score (quartile over a dose matrix) (fitness difference); higher = more antagonism (negative = synergy)
Summary of the method: (§1)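 Quartiles of the Bliss score were taken over technical, biological and donor/recipient replicates. That score is observed fitness minus the product of the single-drug fitness values, which were inferred from combination data. Fitness itself is OD595 at entry into stationary phase divided by the plate's robust no-drug mean, with a cap at 1.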

[2] = test system: S. aureus Newman; assay: as above
Summary of the method: as §1

[3] = test system: B. subtilis 168; assay: as above
Summary of the method: as §1

[4] = test system: S. pneumoniae D39V; assay: as above
Summary of the method: as §1

[5] = test system: S. aureus DSM 20231; assay: fitness (endpoint OD595 vs no drug) (fraction); higher = more growth
Summary of the method: (§2)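 Volumes were 30 µl per well, or 55 µl for S. pneumoniae, in 384-well plates inoculated at OD595 0.01. Media were TSB, LB Lennox or CY at 37 °C, and OD595 was read every 30 min for 14 h with first-reading background subtraction. Fitness is the ratio of optical density at stationary-phase entry to the robust mean of no-drug controls. That ratio is capped at 1.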

[6] = test system: S. aureus Newman; assay: as above
Summary of the method: as §2

[7] = test system: S. pneumoniae D39V; assay: as above
Summary of the method: as §2

[8] = first compound 0.0625 µg/mL, partner 0.1875 µg/mL
[9] = first compound 0.0625 µg/mL, partner 0.375 µg/mL
[10] = first compound 0.0625 µg/mL, partner 0.75 µg/mL
[11] = first compound 0.125 µg/mL, partner 0.1875 µg/mL
[12] = first compound 0.125 µg/mL, partner 0.375 µg/mL
[13] = first compound 0.125 µg/mL, partner 0.75 µg/mL
[14] = first compound 0.0625 µg/mL, partner 0.125 µg/mL
[15] = first compound 0.125 µg/mL, partner 0.0625 µg/mL
[16] = first compound 0.125 µg/mL, partner 0.125 µg/mL
[17] = first compound 0.25 µg/mL, partner 0.0625 µg/mL
[18] = first compound 0.0625 µg/mL, partner 0.0625 µg/mL
[19] = first compound 0.0625 µg/mL, partner 12.5 µg/mL
[20] = first compound 0.0625 µg/mL, partner 25 µg/mL
[21] = first compound 0.0625 µg/mL, partner 50 µg/mL
[22] = first compound 0.125 µg/mL, partner 12.5 µg/mL
[23] = first compound 0.125 µg/mL, partner 25 µg/mL
[24] = first compound 0.125 µg/mL, partner 50 µg/mL
[25] = first compound 0.25 µg/mL, partner 12.5 µg/mL
[26] = first compound 0.25 µg/mL, partner 25 µg/mL
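For Bliss interaction score (quartile over a dose matrix) in this document: first quartile when negative (synergy) and third quartile when positive (antagonism).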

In the case of `Cn1nnc(-c2ccc(-c3ccc(N4C[C@H](CO)OC4=O)cc3F)cn2)n1` [Tedizolid] + CN[C@H](CC(C)C)C(=O)N[C@H]1C(=O)N[C@@H](CC(N)=O)C(=O)N[C@H]2C(=O)N[C@H]3C(=O)N[C@H](C(=O)N[C@H](C(=O)O)c4cc(O)cc(O)c4-c4cc3ccc4O)[C@H](O)c3ccc(c(Cl)c3)Oc3cc2cc(c3O[C@@H]2O[C@H](CO)[C@@H](O)[C@H](O)[C@H]2O[C@H]2C[C@](C)(N)[C@H](O)[C@H](C)O2)Oc2ccc(cc2Cl)[C@H]1O [Vancomycin], the Bliss interaction score [1] was -0.0656, the Bliss interaction score [2] was 0.046 and the Bliss interaction score [3] was 0.0605. It also gave a Bliss interaction score [4] of 0.107, a fitness [5, 8] of 0.89 and a fitness [5, 9] of 0.891. For the same molecule, the fitness [5, 10] was 0.924, the fitness [5, 11] was 0.754 and the fitness [5, 12] was 0.723. It also gave a fitness [5, 13] of 0.867, a fitness ([5]; first compound 0.25 µg/mL, partner 0.1875 µg/mL) of 0.348 and a fitness ([5]; first compound 0.25 µg/mL, partner 0.375 µg/mL) of 0.377. The fitness ([5]; first compound 0.25 µg/mL, partner 0.75 µg/mL) was 0.397, the fitness [6, 8] was 0.977 and the fitness [6, 9] was 0.966. The fitness [6, 10] was 0.939, the fitness [6, 11] was 0.87 and the fitness [6, 12] was 0.845. The fitness [6, 13] was 0.824, the fitness ([7]; first compound 0.03125 µg/mL, partner 0.125 µg/mL) was 0.976 and the fitness [7, 14] was 0.968. It also gave a fitness ([7]; first compound 0.125 µg/mL, partner 0.03125 µg/mL) of 0.809, a fitness [7, 15] of 0.819 and a fitness [7, 16] of 0.833. For the same molecule, the fitness ([7]; first compound 0.25 µg/mL, partner 0.03125 µg/mL) was 0.73, the fitness [7, 17] was 0.718 and the fitness ([7]; first compound 0.5 µg/mL, partner 0.03125 µg/mL) was 0.482. It also gave a fitness ([7]; first compound 0.5 µg/mL, partner 0.0625 µg/mL) of 0.473.
`CC1(C)S[C@@H]2[C@H](NC(=O)[C@H](N)c3ccc(O)cc3)C(=O)N2[C@H]1C(=O)O` [Amoxicillin] + Cn1nnc(-c2ccc(-c3ccc(N4C[C@H](CO)OC4=O)cc3F)cn2)n1 [Tedizolid] gave a Bliss interaction score [1] of -0.0515, a Bliss interaction score [2] of -0.0673 and a Bliss interaction score [3] of -0.0425. For the same molecule, the Bliss interaction score [4] was 0.175, the fitness [5, 18] was 0.65 and the fitness [5, 14] was 0.395. The fitness ([5]; first compound 0.0625 µg/mL, partner 0.25 µg/mL) was 0.151, the fitness [5, 16] was 0.184 and the fitness ([5]; first compound 0.125 µg/mL, partner 0.25 µg/mL) was 0.0385. The fitness [5, 17] was 0.0658, the fitness ([5]; first compound 0.25 µg/mL, partner 0.125 µg/mL) was 0.0466 and the fitness ([5]; first compound 0.25 µg/mL, partner 0.25 µg/mL) was 0.0313. For the same molecule, the fitness ([5]; first compound 0.5 µg/mL, partner 0.0625 µg/mL, one replicate) was 0.015, the fitness ([5]; first compound 0.5 µg/mL, partner 0.125 µg/mL, one replicate) was 0.0045 and the fitness ([5]; first compound 0.5 µg/mL, partner 0.25 µg/mL, one replicate) was 0.0057. The fitness [6, 18] was 0.853, the fitness [6, 15] was 0.807 and the fitness ([7]; first compound 0.0008 µg/mL, partner 0.03125 µg/mL) was 0.961. For the same molecule, the fitness ([7]; first compound 0.0008 µg/mL, partner 0.0625 µg/mL) was 0.966, the fitness ([7]; first compound 0.0008 µg/mL, partner 0.125 µg/mL) was 0.781 and the fitness ([7]; first compound 0.0008 µg/mL, partner 0.25 µg/mL, one replicate) was 0.7. The fitness ([7]; first compound 0.0008 µg/mL, partner 0.5 µg/mL, one replicate) was 0.335, the fitness ([7]; first compound 0.0015 µg/mL, partner 0.03125 µg/mL) was 0.949 and the fitness ([7]; first compound 0.0015 µg/mL, partner 0.0625 µg/mL) was 0.94. The fitness ([7]; first compound 0.0015 µg/mL, partner 0.125 µg/mL) was 0.788, the fitness ([7]; first compound 0.0015 µg/mL, partner 0.25 µg/mL) was 0.692 and the fitness ([7]; first compound 0.0015 µg/mL, partner 0.5 µg/mL) was 0.306. It also gave a fitness ([7]; first compound 0.003 µg/mL, partner 0.03125 µg/mL) of 0.96, a fitness ([7]; first compound 0.003 µg/mL, partner 0.0625 µg/mL) of 0.933 and a fitness ([7]; first compound 0.003 µg/mL, partner 0.125 µg/mL) of 0.759. For the same molecule, the fitness ([7]; first compound 0.003 µg/mL, partner 0.25 µg/mL) was 0.691, the fitness ([7]; first compound 0.003 µg/mL, partner 0.5 µg/mL) was 0.339 and the fitness ([7]; first compound 0.006 µg/mL, partner 0.125 µg/mL, one replicate) was 0.562. The fitness ([7]; first compound 0.006 µg/mL, partner 0.25 µg/mL, one replicate) was 0.462 and the fitness ([7]; first compound 0.006 µg/mL, partner 0.5 µg/mL, one replicate) was 0.283.
`CC1(C)S[C@@H]2[C@H](NC(=O)[C@H](N)c3ccc(O)cc3)C(=O)N2[C@H]1C(=O)O` [Amoxicillin] + O=C(O[C@@H]1Cc2c(O)cc(O)cc2O[C@@H]1c1cc(O)c(O)c(O)c1)c1cc(O)c(O)c(O)c1 [EGCG] gave a Bliss interaction score [1] of 0.0606, a Bliss interaction score [2] of 0.0679 and a Bliss interaction score [3] of 0.0413. It also gave a Bliss interaction score [4] of -0.0544, a fitness [5, 19] of 0.528 and a fitness [5, 20] of 0.516. The fitness [5, 21] was 0.513, the fitness [5, 22] was 0.363 and the fitness [5, 23] was 0.411. It also gave a fitness [5, 24] of 0.376, a fitness [5, 25] of 0.171 and a fitness [5, 26] of 0.0387. For the same molecule, the fitness ([5]; first compound 0.25 µg/mL, partner 50 µg/mL) was 0.108, the fitness ([5]; first compound 0.5 µg/mL, partner 12.5 µg/mL) was 0.0001 and the fitness ([5]; first compound 0.5 µg/mL, partner 25 µg/mL) was 0.0081. The fitness ([5]; first compound 0.5 µg/mL, partner 50 µg/mL) was 0, the fitness [6, 19] was 0.751 and the fitness [6, 20] was 0.714. It also gave a fitness [6, 21] of 0.638, a fitness [6, 22] of 0.757 and a fitness [6, 23] of 0.741. The fitness [6, 24] was 0.681, the fitness [6, 25] was 0.729 and the fitness [6, 26] was 0.751. The fitness ([7]; first compound 0.0008 µg/mL, partner 12.5 µg/mL) was 0.969, the fitness ([7]; first compound 0.0008 µg/mL, partner 25 µg/mL) was 0.911 and the fitness ([7]; first compound 0.0008 µg/mL, partner 50 µg/mL) was 0.984. The fitness ([7]; first compound 0.0015 µg/mL, partner 12.5 µg/mL) was 0.92, the fitness ([7]; first compound 0.0015 µg/mL, partner 25 µg/mL) was 0.922 and the fitness ([7]; first compound 0.003 µg/mL, partner 12.5 µg/mL) was 0.851. It also gave a fitness ([7]; first compound 0.003 µg/mL, partner 25 µg/mL) of 0.912, a fitness ([7]; first compound 0.003 µg/mL, partner 50 µg/mL) of 0.894 and a fitness ([7]; first compound 0.006 µg/mL, partner 12.5 µg/mL, one replicate) of 0.412. It also gave a fitness ([7]; first compound 0.006 µg/mL, partner 25 µg/mL, one replicate) of 0.545 and a fitness ([7]; first compound 0.006 µg/mL, partner 50 µg/mL, one replicate) of 0.601.
